Results reported in US12624004B2 (Fudan University, priority 2019, dated 2026).
Where a name gives a salt, the structure may show the parent alone. Read-outs that look alike come from different tables or passages of the source.

What was measured:
Female mice = assay: In vivo hot plate method analgesia test; settings: intraperitoneal; for Maximum percentage effective analgesic (% MPE): Table 1-2, hot plate 55° C.; for Maximum percentage effective analgesic (% MPE) / % MPE (5 mg/kg): 5 mg/kg dose; for ED50: Mus musculus, ip, Table 4-2, hot plate; for Maximum percentage effective analgesia (% MPE): Table 5-2, hot plate 55° C.; for Maximum percentage effective analgesia (% MPE) / % MPE: 10 mg/kg dose; for % MPE (5 mg/kg): Table 2-2, hot plate 55° C.; for % MPE: Table 4-2, hot plate 55° C.
Experimental: Female mice weighing about 20 g were placed on a hot plate apparatus preheated to 55° C., and the latency of the hindfoot response of the mice was used as the pain threshold indicator. Animals were screened before the experiment, and those with response latency less than 5 s or more than 30 s were excluded. To prevent foot scalding, the maximum observation time was set at 60 s. The basal pain threshold was the average of two measurements, with a 5-min interval between measurements. pain thresholds were measured at 15 m, 30 m, 60 m and 120 m after intraperitoneal injection in each group of mice. The percentage effective analgesia (% MPE) was calculated according to the following formula: percentage effective analgesia (% MPE) (post-dose latency−pre-dose latency)/(60−pre-dose latency)×100%. ED50 values were calculated based on the effective percentage of analgesia using the software Graphpad prism 5.0 software.
(§1) Female mice weighing about 20 g were placed on a hot plate apparatus preheated to 55° C., and the latency of the hindfoot response of the mice was used as the pain threshold indicator. Animals were selected before the experiment, and those with response latency less than 5 s or greater than 30 s were excluded. To prevent foot scalding, the maximum observation time was set at 60 s. The basal pain threshold was the average of two measurements, with a 5-min interval between measurements. pain thresholds were measured at 15 min, 30 min, 60 min and 120 min after intraperitoneal administration in each group of mice. The percentage of analgesic effectiveness (% MPE) was calculated according to the following equation. Percentage of effective analgesia (% MPE)_(Pre-dose incubation period−Incubation period after drug administration)/(60-Pre-dose incubation period)×100%. ED50 values were calculated based on the effective percentage of analgesia using GraphPad prism 5.0 software.
as §1, with “were screened” for “were selected”, “measurements. Pain” for “measurements. pain”, “following formula.” for “following equation. Percentage of effective analgesia (% MPE)_(Pre-dose incubation period−Incubation period after drug administration)/(60-Pre-dose incubation period)×100%. ED50 values were calculated based on the effective percentage of analgesia using GraphPad prism 5.0 software.”
ED50 values were calculated based on the effective percentage of analgesia using Graphpad Prism 5.0.
Female mice weighing about 20 g were placed on a hot plate apparatus preheated to 55° C., and the latency of the hindfoot response of the mice was used as the pain threshold indicator. Animals were screened before the experiment, and those with response latency less than 5 s or more than 30 s were excluded. To prevent foot scalding, the maximum observation time was set at 60 s. The basal pain threshold was the average of two measurements, with a 5-min interval between measurements. pain thresholds were measured at 15 min, 30 min, 60 min and 120 min after intraperitoneal administration in each group of mice. The analgesic effective percentage (% MPE) was calculated according to the following formula: analgesic effective percentage (% MPE)=(latency after drug administration−latency before drug administration)/(60−latency before drug administration)×100%. ED50 values were calculated based on the effective percentage of analgesia using the software Graphpad prism 5.0.
Female mice weighing about 20 g were placed on a hot plate apparatus preheated to 55° C. and the latency of the hindfoot response was used as an indicator of pain threshold. […]

μ opioid receptor = target: T1, μ opioid receptor (Homo sapiens, UniProt P35372); assay: Competition binding assay on membranes of CHO cells expressing μ opioid receptor, [3H]-labeled ligand; settings: read-out: μOR Ki
T1 construct: expressed in transfected cells; host or cells: CHO cells (membranes)
Experimental: (§2) CHO cells expressing p opioid receptor, δ opioid receptor and κ opioid receptor were cultured in 10 cm^2 culture dishes (F-12 medium+10% neonatal bovine serum) for several days, and the culture fluid was aspirated after the cells had grown to the bottom of the dishes; 3 ml of PBS/EDTA solution (0.1M NaCl, 0.01M NaH2PO4, 0.04% EDTA) was added to digest the cells for 3-5 min. Add ice-cold homogenate (50 mM HEPES PH 7.4, 3 mM MgCl, 1 mM EGTA) to the centrifuge tube, transfer the solution and sediment to a homogenizer and homogenize; then transfer the homogenate to a centrifuge tube and centrifuge at 18000 rpm. Centrifuge for 15 min, two times; the obtained precipitate was homogenized with appropriate amount of 50 mM Tris-HCl, pH 7.4 buffer and divided into centrifuge tubes and stored at −70° C. in the refrigerator until use.
(§3) The total binding tube was spiked with 20-30 μg of the expressed membrane receptor protein and […] ligand (1-2 nM), the corresponding non-specific binding tube was spiked with 1 μM of the corresponding ligand, and the sample tubes were spiked with various screened opioid ligands in a final volume of […], incubated at 30° C. for 30 min, and the reaction was terminated in ice water. […] The samples were filtered under negative pressure through GF/C (whatman) glass fiber filter paper on a Millipore sample collector. The reaction was rinsed three times with 4 ml of 50 mMV Tris-HCl (pH 7.4), the filter paper was dried and placed in 0.5 ml Eppendorf tubes with 0.5 ml of lipophilic scintillation solution, the radioactivity was measured by PERKIN ELMER PRI-CARB 2910 liquid scintillation counter and the inhibition rate was calculated. Inhibition rate (or binding rate)=(total binding rate dpm−sample tube dpm)/(total binding tube dpm−non-specific binding tube dpm)×100%
(§4) IC50 was calculated using Prism 5.0 software. the Ki value was calculated as follows, Ki=IC50/(1+[IL]/Kd), [lL] is the concentration of the added labeled ligand and Kd is the equilibrium dissociation parameter of the labeled ligand.
(§5) CHO cells expressing p opioid receptor, δ opioid receptor and κ opioid receptor were cultured in a 10 cm^2 culture dish (F-12 medium+10% neonatal bovine serum) for several days, and the culture fluid was aspirated after the cells grew to the bottom of the dish. 3 mL PBS/EDTA solution (0.1 M NaCl, 0.01 M NaH2PO4, 0.04% EDTA) was added to digest the cells for 3˜5 min, blew with a pipette to completely dislodge the cells. The cells were collected in a 40 mL centrifuge tube, centrifuged at 5000 rpm for 5 min. The supernatant was removed and the ice-cold homogenate (50 mM HEPES pH 7.4, 3 mM MgCl2, 1 mM EGTA) was added to the centrifuge tube. The solution and the precipitate were transferred to a homogenizer. Then the homogenate was transferred to a centrifuge tube and centrifuged at 18000 rpm for 15 min. The precipitate was centrifuged twice at 18000 rpm for 15 min. The obtained precipitate was homogenized by adding appropriate amount of 50 mM Tris-HCl, pH 7.4 buffer and divided into centrifuge tubes and stored at −70° C. in the refrigerator until use.
(§6) The total binding tube was added with 20-30 μg of expressed membrane receptor protein and [3H]-labeled ligand (1-2 nM). The corresponding non-specific binding tube was added with 1 μM of the corresponding ligand, and the sample tubes were added with various screened opioid ligands in a final volume of 100 μL. All of them were incubated for 30 min at 30° C., and the reaction was terminated in ice water. The samples were filtered under negative pressure through GF/C (Whatman) glass fiber filter paper on a Millipore sample collector. The reaction was rinsed three times with 4 mL of 50 mM Tris-HCl (pH 7.4), the filter paper was dried and placed in 0.5 mL Eppendorf tubes with 0.5 mL of lipophilic scintillation solution. […]

δ opioid receptor = target: T2, δ opioid receptor (Homo sapiens, UniProt P41143); assay: Competition binding assay on membranes of CHO cells expressing δ opioid receptor, [3H]-labeled ligand; settings: read-out: δOR Ki
T2 construct: expressed in transfected cells; host or cells: CHO cells (membranes)
Experimental: as §2, §3, §4, §5, §6

κ opioid receptor = target: T3, κ opioid receptor (Homo sapiens, UniProt P41145); assay: Competition binding assay on membranes of CHO cells expressing κ opioid receptor, [3H]-labeled ligand; settings: read-out: κOR Ki
T3 construct: expressed in transfected cells; host or cells: CHO cells (membranes)
Experimental: as §2, §3, §4, §5, §6

Structure (SMILES): COc1cccc(C2(O)CCC(NS(=O)(=O)c3cccc(Cl)c3)CC2CN(C)C)c1.Cl (stereo not drawn) [3-Chloro-N-(3-((dimethylamino)methyl)-4-hydroxy-4-(3-methoxyphenyl)cyclohexyl)benzenesulfonamide hydrochloride]
- Maximum percentage effective analgesic (% MPE) (Female mice): 11.7%

Structure (SMILES): CN(C)C[C@@H]1CN(S(=O)(=O)Cc2ccccc2)CC[C@@]1(O)c1cccc(O)c1 [(3R,4S)-1-(Benzylsulfonyl)-3-((dimethylamino)methyl)-4-(3-hydroxyphenyl)piperidin-4-ol hydrochloride]
- Ki (μ opioid receptor; Table 4-1): 0.17 ± 0.01 nM
- Ki (δ opioid receptor; Table 4-1): 1100 ± 42 nM
- Ki (κ opioid receptor; Table 4-1): 33.7 ± 3.26 nM

Structure (SMILES): COc1cccc(C2(OC(=O)c3ccccc3)CCC(N(C)S(=O)(=O)Cc3cccc(Cl)c3)CC2CN(C)C)c1.Cl (stereo not drawn)
- Maximum percentage effective analgesic (% MPE) (Female mice): 0%

Structure (SMILES): COc1cccc([C@]2(O)CCN(S(=O)(=O)Cc3ccccc3)C[C@H]2CN(C)C)c1.Cl [(3R,4S)-1-(Benzylsulfonyl)-3-((dimethylamino)methyl)-4-(3-methoxyphenyl)piperidin-4-ol hydrochloride]
- ED50 (Female mice): 0.49 mg/kg

Structure (SMILES): COc1cccc(C2(OC(=O)c3ccccc3)CCC(N(C)S(=O)(=O)Cc3ccccc3)CC2CN(C)C)c1.Cl (stereo not drawn)
- Maximum percentage effective analgesic (% MPE) (Female mice): 37.2%

Structure (SMILES): COc1cccc(C2(O)CCN(C(=O)CCc3cccc(C(F)(F)F)c3)CC2CN(C)C)c1.Cl (stereo not drawn) [FWBE10, 1-(3-((Dimethylamino)methyl)-4-hydroxy-4-(3-methoxyphenyl)piperidin-1-yl)-3-(3-(trifluoromethyl)phenyl)propyl-1-one hydrochloride]
- Ki (μ opioid receptor; Table 5-1): 219 ± 9.8 nM
- Ki (δ opioid receptor; Table 5-1): > 10000 nM
- Maximum percentage effective analgesia (% MPE) (Female mice): 17.33%

Structure (SMILES): COc1cccc(C2(O)CCN(C(=O)Cc3c[nH]c4ccccc34)CC2CN(C)C)c1 (stereo not drawn) [FWBE13, 1-(3-((Dimethylamino)methyl)-4-hydroxy-4-(3-methoxyphenyl)piperidin-1-yl)-2-(1H-indol-3-yl)ethyl-1-one]
- Ki (μ opioid receptor; Table 5-1): 115 ± 4.1 nM
- Ki (κ opioid receptor; Table 5-1): 3100 ± 79.5 nM
- Maximum percentage effective analgesia (% MPE) (Female mice): 66.95%

Structure (SMILES): COc1cccc(C2(O)CCC(N(Cc3ccccc3)S(=O)(=O)c3ccccc3)CC2CN(C)C)c1.Cl (stereo not drawn) [N-Benzyl-N-(3-((dimethylamino)methyl)-4-hydroxy-4-(3-methoxyphenyl)cyclohexyl)benzenesulfonamide hydrochloride]
- Maximum percentage effective analgesic (% MPE) (Female mice): 0%

Structure (SMILES): COc1cccc(C2(O)CCC(NS(=O)(=O)Cc3cccc(Cl)c3)CC2CN(C)C)c1.Cl (stereo not drawn) [1-(3-Chlorophenyl)-N-(3-((dimethylamino)methyl)-4-hydroxy-4-(3-methoxyphenyl)cyclohexyl)methanesulfonamide hydrochloride]
- Maximum percentage effective analgesic (% MPE) (Female mice): 15.2%

Structure (SMILES): COc1cccc(C2(O)CCC(NS(=O)(=O)c3ccccc3)CC2CN(C)C)c1.Cl (stereo not drawn) [N-(3-((Dimethylamino)methyl)-4-hydroxy-4-(3-methoxyphenyl)cyclohexyl)benzenesulfonamide hydrochloride]
- Maximum percentage effective analgesic (% MPE) (Female mice): 10.3%

Structure (SMILES): CN(C)CC1CN(S(=O)(=O)Cc2ccccc2)CCC1(O)c1cccc(OC(F)(F)F)c1.Cl (stereo not drawn)
- % MPE (5 mg/kg) (Female mice): 20.2%

Structure (SMILES): COc1cccc(C2(O)CCC(S(=O)(=O)Cc3ccccc3)CC2CN(C)C)c1.Cl (stereo not drawn) [4-(Benzylsulfonyl)-2-((dimethylamino)methyl)-1-(3-methoxyphenyl)cyclohexane-1-ol hydrochloride]
- Maximum percentage effective analgesic (% MPE) (Female mice): 21.7%

Structure (SMILES): COc1cccc([C@]2(O)CCN(C(=O)Cc3cc(F)c(F)cc3F)CC2CN(C)C)c1.Cl (stereo partly drawn)
- ED50 (Female mice): 0.54 mg/kg

Structure (SMILES): COc1cccc([C@@]2(O)CCN(C(=O)Cc3cc(F)c(F)cc3F)C[C@@H]2CN(C)C)c1.Cl
- % MPE (Female mice): 10.5%

Structure (SMILES): COc1cccc(C2(OC(F)F)CCN(S(=O)(=O)Cc3ccccc3)CC2CN(C)C)c1.Cl (stereo not drawn)
- % MPE (5 mg/kg) (Female mice): 8.38%

Structure (SMILES): CN(C)C[C@@H]1CN(C(=O)Cc2cc(F)c(F)cc2F)CC[C@@]1(O)c1cccc(O)c1.Cl
- % MPE (Female mice): 29.7%

Structure (SMILES): COc1cccc(C2(OC(=O)c3ccccc3)CCC(NS(=O)(=O)c3cccc(Cl)c3)CC2CN(C)C)c1.Cl (stereo not drawn) [4-((3-Chlorophenyl)sulfonylamino)-2-((dimethylamino)methyl)-1-(3-methoxyphenyl)cyclohexyl benzoate hydrochloride]
- Maximum percentage effective analgesic (% MPE) (Female mice): 11.6%

Structure (SMILES): COc1cccc(C2(O)CCC(N(Cc3ccccc3)S(=O)(=O)c3cccc(Cl)c3)CC2CN(C)C)c1.Cl (stereo not drawn) [N-Benzyl-3-chloro-N-(3-((dimethylamino)methyl)-4-hydroxy-4-(3-methoxyphenyl)cyclohexyl)benzenesulfonamide hydrochloride]
- Maximum percentage effective analgesic (% MPE) (Female mice): 6%

Structure (SMILES): COc1cccc(C2(O)CCN(C(=O)Cc3cccc(Br)c3)CC2CN(C)C)c1.Cl (stereo not drawn) [FWBE11, 2-(3-Bromophenyl)-1-(3-((dimethylamino)methyl)-4-hydroxy-4-(3-methoxyphenyl)piperidin-1-yl)ethyl-1-one hydrochloride]
- Ki (μ opioid receptor; Table 5-1): 57.6 ± 0.1 nM
- Ki (δ opioid receptor; Table 5-1): > 10000 nM
- Maximum percentage effective analgesia (% MPE) (Female mice): 98.31%
